Measured values: ChEMBL document CHEMBL1201862, “PubChem BioAssay data set” (2004)
Active and inactive are the calls of the source.

Tests used:
[1] = biological target: T1, Mannose-6-phosphate isomerase (Homo sapiens, UniProt P34949); assay: MPI inhibition at elevated mannose 6-phosphate – biochemical, fluorescence intensity, high mannose 6-phosphate, primary screen (AID 1220)
T1 sequence (P34949 whole entry): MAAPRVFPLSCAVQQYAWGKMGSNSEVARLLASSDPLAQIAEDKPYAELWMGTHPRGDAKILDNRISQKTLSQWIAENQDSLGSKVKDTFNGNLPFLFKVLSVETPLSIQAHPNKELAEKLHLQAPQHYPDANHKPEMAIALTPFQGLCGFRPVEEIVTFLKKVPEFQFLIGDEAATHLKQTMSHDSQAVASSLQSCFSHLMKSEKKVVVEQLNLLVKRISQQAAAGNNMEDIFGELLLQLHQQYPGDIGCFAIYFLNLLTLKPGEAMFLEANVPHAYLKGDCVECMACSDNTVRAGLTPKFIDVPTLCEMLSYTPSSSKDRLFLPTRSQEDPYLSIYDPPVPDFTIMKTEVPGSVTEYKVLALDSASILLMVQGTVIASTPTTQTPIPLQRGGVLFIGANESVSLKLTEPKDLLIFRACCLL

[2] = biological target: Mitogen-activated protein kinase 10 (Homo sapiens, UniProt P53779); assay: Dose response biochemical screening assay for inhibitors of c-Jun N-Terminal Kinase 3 (JNK3). [Related pubchem assays: 746 ]
Chain of Mitogen-activated protein kinase 10 (P53779 whole entry): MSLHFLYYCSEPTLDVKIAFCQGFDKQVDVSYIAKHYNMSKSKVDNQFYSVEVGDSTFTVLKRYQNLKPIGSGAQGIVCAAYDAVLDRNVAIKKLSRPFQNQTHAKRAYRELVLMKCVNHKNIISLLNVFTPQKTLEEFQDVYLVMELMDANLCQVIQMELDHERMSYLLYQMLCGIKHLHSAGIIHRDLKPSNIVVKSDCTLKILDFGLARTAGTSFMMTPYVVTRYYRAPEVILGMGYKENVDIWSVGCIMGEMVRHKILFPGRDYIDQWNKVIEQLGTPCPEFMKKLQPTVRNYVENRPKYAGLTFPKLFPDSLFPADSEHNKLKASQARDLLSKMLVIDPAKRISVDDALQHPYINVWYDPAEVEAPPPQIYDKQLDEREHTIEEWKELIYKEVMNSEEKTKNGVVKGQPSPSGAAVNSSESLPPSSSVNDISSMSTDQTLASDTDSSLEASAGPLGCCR

[3] = biological target: T2, Lysosomal acid glucosylceramidase (Homo sapiens, UniProt P04062); assay: Dose response cell-based high throughput screening assay to identify enhancers of beta-glucosidase activity. [Related pubchem assays: 784 ]; type: functional
T2 sequence (P04062 whole entry): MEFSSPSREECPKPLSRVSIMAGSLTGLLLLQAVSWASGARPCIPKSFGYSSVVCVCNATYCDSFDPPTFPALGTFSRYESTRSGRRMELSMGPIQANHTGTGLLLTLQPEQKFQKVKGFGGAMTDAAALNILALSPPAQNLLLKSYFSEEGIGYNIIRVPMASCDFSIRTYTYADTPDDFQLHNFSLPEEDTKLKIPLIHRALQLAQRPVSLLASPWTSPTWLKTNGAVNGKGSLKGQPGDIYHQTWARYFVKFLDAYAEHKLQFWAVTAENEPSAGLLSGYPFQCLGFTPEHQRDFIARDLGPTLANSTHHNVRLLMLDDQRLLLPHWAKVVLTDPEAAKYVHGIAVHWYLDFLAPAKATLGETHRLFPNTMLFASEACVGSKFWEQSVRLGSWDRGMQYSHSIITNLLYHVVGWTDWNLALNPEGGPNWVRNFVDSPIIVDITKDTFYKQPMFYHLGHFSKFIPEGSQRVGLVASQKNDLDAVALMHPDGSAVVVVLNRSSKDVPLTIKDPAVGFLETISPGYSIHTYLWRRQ

[4] = biological target: T3, Oxysterols receptor LXR-beta (Homo sapiens, UniProt P55055); type: functional, cell-based;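 also: Cell-based luminescence dose-response assay of agonist activity at LXR, run as a confirmatory counterscreen to a daf-12 agonist screen; HEK293 cells with Gal4-LXR fusion and GAL4-driven luciferase reporter; agonist potency from rising luciferase signal of a Gal4-LXR reporter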
T3 sequence (P55055 whole entry): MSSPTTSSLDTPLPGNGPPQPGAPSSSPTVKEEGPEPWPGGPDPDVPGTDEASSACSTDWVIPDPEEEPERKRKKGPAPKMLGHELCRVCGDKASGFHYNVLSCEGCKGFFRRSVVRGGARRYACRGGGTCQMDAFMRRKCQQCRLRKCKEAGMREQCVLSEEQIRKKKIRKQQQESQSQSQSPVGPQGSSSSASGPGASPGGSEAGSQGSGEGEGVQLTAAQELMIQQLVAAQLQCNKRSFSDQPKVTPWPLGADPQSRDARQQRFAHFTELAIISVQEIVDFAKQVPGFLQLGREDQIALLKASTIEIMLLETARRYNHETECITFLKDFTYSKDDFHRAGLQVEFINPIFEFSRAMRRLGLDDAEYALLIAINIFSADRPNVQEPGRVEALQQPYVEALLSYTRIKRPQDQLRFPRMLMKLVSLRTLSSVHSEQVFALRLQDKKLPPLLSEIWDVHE

[5] = cells
[6] = viability inhibitors of stage V gametocytes – luminescence, dose response (AID 1117278); type: functional, cell-based;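 also: gametocytes exposed to compound for 24 hours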
[7] = viability loss in human Jurkat cells – cell-based, luminescence, cytotoxicity control for P. falciparum gametocyte viability project, dose response (AID 1117277); type: functional;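 also: potency reflects loss of cellular ATP meaning fewer viable cells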
[8] = biological target: T4, Polyadenylate-binding protein 1 (Homo sapiens, UniProt P11940); assay: MLLE binding blockers, Cy5 peptide tracer – biochemical, fluorescence polarization, Cy5-PAM2 peptide, secondary, miRNA deadenylation inhibitor project, dose response (AID 602260); type: functional; details: read-out: IC50_Mean
T4 sequence (P11940 whole entry, the tested form may be a part): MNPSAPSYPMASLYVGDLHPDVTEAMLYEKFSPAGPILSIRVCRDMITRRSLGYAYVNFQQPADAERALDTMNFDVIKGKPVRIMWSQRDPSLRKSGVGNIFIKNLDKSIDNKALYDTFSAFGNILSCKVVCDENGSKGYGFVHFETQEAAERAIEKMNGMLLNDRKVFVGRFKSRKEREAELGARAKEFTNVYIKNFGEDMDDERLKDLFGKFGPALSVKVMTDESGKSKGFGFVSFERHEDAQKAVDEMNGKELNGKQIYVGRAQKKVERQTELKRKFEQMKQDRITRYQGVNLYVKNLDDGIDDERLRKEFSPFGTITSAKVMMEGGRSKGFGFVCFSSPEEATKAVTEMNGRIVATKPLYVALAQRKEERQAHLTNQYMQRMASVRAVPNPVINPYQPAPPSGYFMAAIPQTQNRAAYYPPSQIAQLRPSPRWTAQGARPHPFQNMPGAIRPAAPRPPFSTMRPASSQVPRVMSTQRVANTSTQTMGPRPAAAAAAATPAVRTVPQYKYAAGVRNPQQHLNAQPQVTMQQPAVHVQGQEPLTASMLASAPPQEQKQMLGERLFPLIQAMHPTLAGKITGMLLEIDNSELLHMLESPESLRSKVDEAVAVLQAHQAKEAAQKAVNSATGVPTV

[9] = biological target: T4, Polyadenylate-binding protein 1; assay: MLLE domain peptide-binding blockers, IC50 – biochemical, fluorescence polarization, FITC-PAM2 peptide, dose response (AID 602259); type: functional; details: read-out: IC50_Mean
[10] = cells; remark: listed apart in the source
[11] = viability of uninfected HEp-2 cells – cell-based, HTS, cytotoxicity control for RSV inhibitor project, dose response (AID 2410); type: functional; details: human respiratory syncytial virus
[12] = biological target: T5, Estrogen receptor (Homo sapiens, UniProt P03372);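 also: potency for inhibiting coactivator peptide recruitment to the receptor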
T5 sequence (P03372 whole entry): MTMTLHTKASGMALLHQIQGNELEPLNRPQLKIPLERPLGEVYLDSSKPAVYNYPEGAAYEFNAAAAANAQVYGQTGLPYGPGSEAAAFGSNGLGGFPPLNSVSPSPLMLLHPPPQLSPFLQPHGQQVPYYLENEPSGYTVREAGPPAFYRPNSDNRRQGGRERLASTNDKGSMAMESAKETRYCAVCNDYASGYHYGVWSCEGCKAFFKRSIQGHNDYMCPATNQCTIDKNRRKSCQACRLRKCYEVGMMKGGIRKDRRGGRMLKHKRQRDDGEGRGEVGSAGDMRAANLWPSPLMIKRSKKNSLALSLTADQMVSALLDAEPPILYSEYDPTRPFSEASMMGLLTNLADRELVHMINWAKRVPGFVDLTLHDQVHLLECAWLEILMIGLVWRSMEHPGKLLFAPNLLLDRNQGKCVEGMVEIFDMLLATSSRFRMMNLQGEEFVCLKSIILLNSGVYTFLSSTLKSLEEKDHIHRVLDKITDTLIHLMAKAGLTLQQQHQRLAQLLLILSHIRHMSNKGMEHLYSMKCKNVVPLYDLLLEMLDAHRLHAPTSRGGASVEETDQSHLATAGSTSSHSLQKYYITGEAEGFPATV

[13] = viability loss in THP-1 monocytes – THP-1 cells, cytotoxicity control for Vif-APOBEC3G degradation inhibitor project, dose response (AID 1117359); type: functional; details: THP-1
[14] = biological target: T6, Epstein-Barr nuclear antigen 1 (Epstein-Barr virus (strain B95-8) (HHV-4) (Human herpesvirus 4), UniProt P03211); assay: inhibition of EBV nuclear antigen 1 DNA binding – biochemical, fluorescence polarization, 1536-well, dose response (AID 2381); parameters: species or system human gammaherpesvirus 4;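 also: fluorescence polarization of a Cy5 DNA probe bound by EBNA-1 protein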
T6 sequence (P03211 whole entry): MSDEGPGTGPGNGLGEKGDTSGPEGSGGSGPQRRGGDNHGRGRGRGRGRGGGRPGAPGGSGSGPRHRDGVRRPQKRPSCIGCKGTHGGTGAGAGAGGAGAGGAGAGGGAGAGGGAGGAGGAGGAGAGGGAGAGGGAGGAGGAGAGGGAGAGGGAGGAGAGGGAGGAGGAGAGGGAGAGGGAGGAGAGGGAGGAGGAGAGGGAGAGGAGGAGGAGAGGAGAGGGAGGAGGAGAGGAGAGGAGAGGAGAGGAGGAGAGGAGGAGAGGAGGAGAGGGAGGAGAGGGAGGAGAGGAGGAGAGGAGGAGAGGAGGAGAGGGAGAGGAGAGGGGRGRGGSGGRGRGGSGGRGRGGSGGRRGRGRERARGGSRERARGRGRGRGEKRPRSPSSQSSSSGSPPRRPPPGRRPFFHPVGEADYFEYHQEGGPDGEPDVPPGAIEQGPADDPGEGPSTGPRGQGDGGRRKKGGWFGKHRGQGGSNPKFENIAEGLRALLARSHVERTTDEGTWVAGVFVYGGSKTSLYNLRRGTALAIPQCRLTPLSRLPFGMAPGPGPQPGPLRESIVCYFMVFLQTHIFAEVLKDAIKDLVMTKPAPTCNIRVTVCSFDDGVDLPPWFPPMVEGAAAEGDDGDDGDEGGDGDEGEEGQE

[15] = biological target: T7, Lytic switch protein BZLF1 (Epstein-Barr virus (strain B95-8) (HHV-4) (Human herpesvirus 4), UniProt P03206); assay: inhibition of BZLF1 ZTA DNA binding – biochemical, fluorescence polarization, Epstein-Barr virus, 1536-well, counter-screen for EBNA-1 inhibitor project, dose response (AID 2377); parameters: species or system human gammaherpesvirus 4;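 also: fluorescence polarization of Cy5-labelled ZRE DNA probe bound by purified Zta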
T7 sequence (P03206 whole entry): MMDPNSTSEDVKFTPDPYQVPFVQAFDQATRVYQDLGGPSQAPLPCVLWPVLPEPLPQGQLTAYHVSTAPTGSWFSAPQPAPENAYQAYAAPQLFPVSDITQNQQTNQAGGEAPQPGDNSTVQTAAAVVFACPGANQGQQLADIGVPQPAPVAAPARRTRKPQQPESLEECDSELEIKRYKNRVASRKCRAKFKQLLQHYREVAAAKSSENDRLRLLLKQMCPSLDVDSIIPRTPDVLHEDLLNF

[16] = biological target: T8, Caspase-6 (Homo sapiens, UniProt P55212); assay: inhibition of CASP6 peptide cleavage – biochemical, VEID-R110 fluorescence, cherry-pick, dose response (AID 720632)
T8 sequence (P55212 whole entry): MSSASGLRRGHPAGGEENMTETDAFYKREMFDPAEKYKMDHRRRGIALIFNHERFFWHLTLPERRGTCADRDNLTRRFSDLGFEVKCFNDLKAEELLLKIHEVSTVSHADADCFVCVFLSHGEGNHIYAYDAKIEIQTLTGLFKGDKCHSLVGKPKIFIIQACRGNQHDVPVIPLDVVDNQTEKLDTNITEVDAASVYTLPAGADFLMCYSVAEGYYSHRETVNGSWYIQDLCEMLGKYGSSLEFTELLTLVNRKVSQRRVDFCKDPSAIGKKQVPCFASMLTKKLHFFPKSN

[17] = biological target: T9, Carboxy-terminal domain RNA polymerase II polypeptide A small phosphatase 1 (Homo sapiens, UniProt Q9GZU7); assay: CTDSP1 inhibitors, concentration-response, biochemical, absorbance readout, ultra-high-throughput screen actives (AID 540297); type: functional
T9 sequence (Q9GZU7 whole entry): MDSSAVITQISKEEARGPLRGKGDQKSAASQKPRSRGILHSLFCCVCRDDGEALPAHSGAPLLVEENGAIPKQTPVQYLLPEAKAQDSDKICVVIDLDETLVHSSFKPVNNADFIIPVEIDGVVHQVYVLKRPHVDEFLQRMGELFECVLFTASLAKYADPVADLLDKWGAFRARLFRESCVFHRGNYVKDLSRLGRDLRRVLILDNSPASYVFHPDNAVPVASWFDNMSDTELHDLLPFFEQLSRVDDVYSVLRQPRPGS

CN(C)c1cccc2c(C#N)ccc(N(C)C)c12
IC50 [1]: > 50 µM (not active)

CCN(CC)S(=O)(=O)c1ccc2nc(COC(=O)c3n[nH]c4ccccc34)[nH]c2c1
IC50 [2]: 0.401 µM (active)

O=C(CCNS(=O)(=O)c1cccc2nsnc12)NC1CCN(Cc2ccccc2)CC1
EC50 [3]: > 50 µM (not active)

O=C(NC(=S)Nc1ccc(Br)cn1)c1cccs1
EC50 [4]: > 67.5 µM (inactive) | EC50 [5]: > 67.5 µM (inactive)

O=C(NCc1ccc(F)cc1)C(Cc1ccccc1)NS(=O)(=O)c1cccs1 (stereo not drawn)
IC50 [6]: > 109 µM (inactive) | IC50 [7]: > 83.3 µM (inactive)

c1coc(-c2nn3c(Cn4nnc5ccccc54)nnc3s2)c1
IC50 [8]: > 66 µM (inactive) | IC50 [9]: > 66 µM (inactive) | IC50 [10]: 8.25 µM (active)

COc1cc2c(cc1NC(=O)Nc1ccccc1)oc1ccccc12
CC50 [11]: 13.2 µM (active) | IC50 [10]: 30.4 µM (active)

CC(=O)Nc1nc(C=C(Cl)Cl)cs1
IC50 [12]: > 50 µM (not active)

CC(C)(C)C(=O)OCc1nc(-c2ccc(O)c(O)c2)cs1
CC50 [13]: 27.8 µM (active)

Cc1ccc(-n2c(SCC(=O)NCc3ccco3)nc3c4ccccc4nc-3c2O)cc1
CC50 [13]: > 40 µM (active)

CCOC(=O)[C@H]1[C@H]2COc3ccc(Cl)cc3[C@@H]2N2C(=O)c3ccc(Cl)cc3NC(=O)[C@@]12C
IC50 [14]: > 148 µM (not active) | IC50 [15]: > 111 µM (not active)

O=[N+]([O-])c1c(NCCO)cc(N2CCC3(CC2)OCCO3)c2nonc12
IC50 [1]: > 50 µM (not active)

CN(C)c1ccc(S(=O)(=O)N2CCCCC2)cc1NC(=O)COc1ccccc1F
IC50 [6]: > 109 µM (inactive) | IC50 [7]: > 83.3 µM (inactive)

CCOC(=O)c1ccc(-c2csc(NC(=O)CN3CCC(C)CC3)n2)cc1
IC50 [14]: 5.32 µM (active) | IC50 [15]: > 111 µM (not active)

Cc1ccccc1CS(=O)(=O)Cc1ccc(C(=O)NCc2ccco2)o1
EC50 [3]: > 50 µM (not active)

O=c1c2sccc2n(Cc2cc(=O)n3ccccc3n2)c(=O)n1-c1ccccc1
IC50 [10]: 14 µM (active)

Nc1c(C(=O)Nc2ccccc2)sc2nc(-c3ccco3)ccc12
IC50 [14]: 6.43 µM (active) | IC50 [15]: > 111 µM (not active)

Cc1cccc(Nc2nc(NCc3ccco3)nc(N3CCOCC3)n2)c1
CC50 [11]: 36.8 µM (active) | IC50 [6]: > 109 µM (inactive) | IC50 [7]: > 83.3 µM (inactive)

Cc1nnc(NS(=O)(=O)c2ccc(N=Nc3ccc(N)nc3N)cc2)s1
AC50 [16]: 3.23 µM (active)

C(=C\c1ccc([C@H]2[C@H]3CNC[C@@H]2N3Cc2ccccn2)cc1)/c1ccccc1
AC50 [16]: 41.9 µM (active)

CN(/N=C/c1cccnc1)c1cnn(-c2ccc(F)c(Cl)c2)c(=O)c1Cl
IC50 [12]: 17.9 µM (active) | IC50 [17]: > 80 µM (inactive)
